From patent US20240083910A1, “AMIDO-SUBSTITUTED PYRIDYL COMPOUNDS AND METHODS OF USE THEREOF FOR THE TREATMENT OF HERPESVIRUSES” (Merck Sharp & Dohme LLC, priority 2020, published 2024)
Like-named read-outs stand apart in the source and are kept apart here.

Key:
HSV-1 Strain F = assay: Viral qPCR assay, HSV-1; type: cell-based, Herpes Simplex Virus type 1; details: Vero or MRC5 cells, 0.0005-0.004 pfu/cell, growth medium, viral genome copies by qPCR, read-out: HSV1 Cell (EC50)
Method: (§1) MRC5 cells, Vero cells, and MeWo cells were obtained from ATCC, and were maintained at 37° C./5% CO2/90% relative humidity in Minimal Essential Medium with 10% fetal bovine serum, […] L-glutamine, 100 units/ml penicillin and 100 ug/ml streptomycin. Assay plates were prepared by dispensing compounds dissolved in DMSO into wells of 384 well collagen-coated plates using an ECHO acoustic dispenser. Each compound was tested in a 10-point, serial 3-fold dilution. Controls included uninfected cells and infected cells treated only with DMSO. Assays were initiated by mixing selected cells, in suspension, with virus, and dispensing 50 μl/well infected cells to pre-plated compounds. Plates were incubated at 37° C./5% CO2/90% relative humidity for ˜72 hrs to permit genomic replication, and infected cells were lysed by the addition of an equal volume of lysis buffer (10 mM Tris-HCl, pH8, 50 mM KCl, 2 mM MgCl2, 0.45% NP-40, 0.45% Tween-20, and 100 μg/ml proteinase K). An aliquot of the lysate was transferred to a 384-well PCR plate and incubated at 56° C. for 1 hour and then at 95° C. for 10 min. Levels of a viral gene and of the cellular control, PPIA (Thermo Fisher Assay ID=Hs04194521_s1), were measured in separate 10 ul qPCR assays using TaqMan® Gene Expression Master Mix (Applied Biosystems), and an 7900HT Fast Real-Time PCR System with 384-Well Block Module. 7-point, serial 10-fold dilutions of a plasmid standard were run on each plate to generate a standard curve, and genome copies numbers were calculated by plotting experimental Ct onto linear regression of the standard curve. Viral genome copy numbers were normalized by cellular control copy number, and compound effects were normalized to the window defined by the controls. Calculated % effects were fit using a 4-parameter algorithm, and EC50 was reported.
(§2) MRC5 cells, Vero cells, and MeWo cells were obtained from ATCC, and were maintained at 37° C./5% CO2/90% relative humidity in Minimal Essential Medium with 10% fetal bovine serum, […] L-glutamine, 100 units/ml penicillin and 100 ug/ml streptomycin. Assay plates were prepared by dispensing compounds dissolved in DMSO into wells of 384 well collagen-coated plates using an ECHO acoustic dispenser. Each compound was tested in a 10-point, serial 3-fold dilution. Controls included uninfected cells and infected cells treated only with DMSO. Assays were initiated by mixing selected cells, in suspension, with virus, and dispensing 50 μl/well infected cells to pre-plated compounds. Plates were incubated at 37° C./5% CO2/90% relative humidity for ˜72 hrs to permit genomic replication, and infected cells were lysed by the addition of an equal volume of lysis buffer (10 mM Tris-HCl, pH 8, 50 mM KCl, 2 mM MgC12, 0.45% NP-40, 0.45% Tween-20, and 100 μg/ml proteinase K). An aliquot of the lysate was transferred to a 384-well PCR plate and incubated at 56° C. for 1 hour and then at 95° C. for 10 min. Levels of a viral gene were measured in 10 ul qPCR assays using TaqMan® Gene Expression Master Mix (Applied Biosystems), and an 7900HT Fast Real-Time PCR System with 384-Well Block Module. 7-point, serial 10-fold dilutions of a plasmid standard were run on each plate to generate a standard curve, and genome copies numbers were calculated by plotting experimental Ct onto linear regression of the standard curve. Compound effects on viral genome copy number were normalized to the window defined by the controls. Calculated % effects were fit using a 4-parameter algorithm, and ECso was reported.
HSV-1: Strain F […] was assayed in Vero or MRC5 cells and was used at 0.0005-0.004 pfu/cell in growth medium. Primer-probe set was Thermo Fisher Assay ID=AIBJZIB

[1] = target: T1, Human cytomegalovirus DNA polymerase (Human cytomegalovirus, UniProt P08546); assay: CMV polymerase assay (AlphaLISA); type: biochemical; details: HCMV polymerase 0.2 nM, 30 min pre-incubation, 60 min at 37° C.
T1 construct: made in house; host or cells: SF21 insect cells (baculovirus vector)
Method: Human cytomegalovirus and varicella zoster virus DNA polymerases were expressed via baculovirus vector in SF21 cells and purified. Heterodimeric nucleic acid substrate used in the herpesvirus polymerase reactions was generated by annealing a 59-mer template to a 17-mer digoxigenin-labeled primer. Polymerase (HCMV final concentration of 0.2 nM; VZV final concentration of 0.4 nM) was combined with an inhibitor compound or DMSO in assay buffer (10 mM HEPES, pH 7.5, 25 mM KCl, 25 mM NaCl, 5 mM MgCl2, 5% glycerol, 0.67 mg/ml bovine serum albumin, and 1 mM tris(2-carboxyethyl)phosphine), and this mixture was pre-incubated for 30 minutes at room temperature in 384-well microtiter plates. The polymerization reaction was initiated by the addition of template/primer substrate (final concentration: 1.6 nM), and dNTPs (final concentration: 24 nM dCTP, 24 nMdGTP, 16 nM dATP, 16 nM dTTP, and 0.8 nM biotin-dUTP). After 60 min incubation at 37° C., reactions were terminated with quench buffer (25 mM HEPES pH 7.5, 100 mM NaCl, 0.25% Tween-20, 12 mM EDTA, and 1 mg/ml bovine serum albumin). Incorporation of biotinylated UTP was detected with 2.5-5 ug/ml anti-DIG AlphaLISA acceptor beads and 5-10 ug/ml streptavidin AlphaLISA donor beads (PerkinElmer). Compound effects were normalized to the window defined by the controls (DMSO only and pre-quenched wells) and were fit using a 4-parameter algorithm to report an IC50.

HCMV Strain AD169 = assay: Viral qPCR assay, HCMV; type: cell-based, Human cytomegalovirus; details: MRC-5 cells, 0.05-0.1 pfu/cell, growth media or 50% fetal bovine serum, viral genome copies by qPCR, read-out: CMV Cell (EC50)
Method: as §1, §2
HCMV: Strain AD169 Street was assayed in MRC-5 cells and was used at 0.05-0.1 pfu/cell. The assays were performed in either growth media or in the same media with 50% fetal bovine serum. Primer-probe set was Thermo Fisher Assay ID=AIFATFK.

VZV = assay: Viral qPCR assay, VZV; type: cell-based, varicella zoster virus; details: MeWo or MRC5 cells, 0.04-0.1 pfu/cell, growth medium, viral genome copies by qPCR
Method: as §1, §2
VZV: Strain Street was maintained as an infected cell stock in MRC-5 cells. It was assayed in MeWo or MRC5 cells and was used at 0.04-0.1 pfu/cell. The assays were performed in growth medium. Primer-probe set was Thermo Fisher Assay ID=AIPAEXQ.

[2] = Human betaherpesvirus 5, AD169, MRC5, 72 h

T1 sequence (P08546 whole entry): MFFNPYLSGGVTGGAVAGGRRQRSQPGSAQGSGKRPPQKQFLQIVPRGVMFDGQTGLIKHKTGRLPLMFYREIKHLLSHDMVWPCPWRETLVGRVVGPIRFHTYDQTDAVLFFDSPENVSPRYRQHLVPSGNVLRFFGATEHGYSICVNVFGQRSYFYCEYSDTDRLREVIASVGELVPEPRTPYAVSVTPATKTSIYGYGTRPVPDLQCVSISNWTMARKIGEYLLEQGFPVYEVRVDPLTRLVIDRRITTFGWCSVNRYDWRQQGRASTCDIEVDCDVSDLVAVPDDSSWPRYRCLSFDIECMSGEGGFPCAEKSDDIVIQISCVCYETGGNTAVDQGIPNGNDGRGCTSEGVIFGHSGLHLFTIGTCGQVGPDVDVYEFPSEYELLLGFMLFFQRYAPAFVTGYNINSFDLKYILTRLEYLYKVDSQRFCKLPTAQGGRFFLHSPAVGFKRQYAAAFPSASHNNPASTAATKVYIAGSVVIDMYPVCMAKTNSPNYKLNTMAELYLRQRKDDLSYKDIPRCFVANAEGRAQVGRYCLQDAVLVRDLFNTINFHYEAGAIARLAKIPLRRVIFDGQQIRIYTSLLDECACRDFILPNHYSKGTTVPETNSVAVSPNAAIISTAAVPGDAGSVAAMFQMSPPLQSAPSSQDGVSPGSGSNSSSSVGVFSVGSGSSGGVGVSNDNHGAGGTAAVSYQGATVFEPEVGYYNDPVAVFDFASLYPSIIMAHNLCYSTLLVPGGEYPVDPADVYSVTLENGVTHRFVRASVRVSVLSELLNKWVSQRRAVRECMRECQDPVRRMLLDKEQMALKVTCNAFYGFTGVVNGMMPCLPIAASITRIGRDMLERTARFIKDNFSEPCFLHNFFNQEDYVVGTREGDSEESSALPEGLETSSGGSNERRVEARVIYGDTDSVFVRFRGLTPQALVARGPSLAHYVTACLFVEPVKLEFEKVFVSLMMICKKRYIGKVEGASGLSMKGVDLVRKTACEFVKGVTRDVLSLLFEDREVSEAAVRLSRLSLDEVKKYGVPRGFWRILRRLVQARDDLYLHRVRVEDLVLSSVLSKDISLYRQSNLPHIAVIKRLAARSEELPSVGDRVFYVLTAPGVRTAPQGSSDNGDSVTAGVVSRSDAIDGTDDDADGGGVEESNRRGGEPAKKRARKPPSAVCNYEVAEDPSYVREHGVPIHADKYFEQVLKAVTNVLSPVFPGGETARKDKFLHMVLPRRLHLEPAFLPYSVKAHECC

| SMILES | IC50 ([1]; read-out: CMV (IC50)) [µM] | EC50 (HSV-1 Strain F; Human alphaherpesvirus 1, 72 h) [µM] | EC50 (HCMV Strain AD169; [2]) [µM] | EC50 (VZV; Human alphaherpesvirus 3, 72 h) [µM] | IC50 ([1]; CMV (IC50)) [µM] | EC50 (HCMV Strain AD169; ~72 hrs) [µM] | EC50 (VZV; ~72 hrs) [µM] | EC50 (HSV-1 Strain F; ~72 hrs) [µM] |
| --- | --- | --- | --- | --- | --- | --- | --- | --- |
| COc1nc(C2CC(O)C2)c(O[C@H]2CCN3C(=O)OC[C@@H]3C2)cc1C(=O)NCc1ccc(Cl)cc1 (single isomer, unassigned) [Compound 74] | 0.0316 | 0.271 | 0.356 | 0.709 |  |  |  |  |
| COc1nc(C2CC2O)c(O[C@H]2CCN3C(=O)OC[C@@H]3C2)cc1C(=O)NCc1ccc(Cl)cc1 (single isomer, unassigned) [Compound 77] |  |  |  |  | 0.0315 | 0.872 |  |  |
| COc1nc(C2CC2O)c(O[C@H]2CCN3C(=O)OC[C@@H]3C2)cc1C(=O)NCc1ccc(Cl)cc1 (single isomer, unassigned) [Compound 78] | 0.049 | 0.644 |  |  |  | 0.616 | 1.85 |  |
| COc1nc(C2CC2O)c(O[C@H]2CCN3C(=O)OC[C@@H]3C2)cc1C(=O)NCc1ccc(Cl)cc1 (single isomer, unassigned) [Compound 79] | 0.0287 |  |  |  |  | 0.337 | 0.463 | 0.518 |
| COc1nc(C2CC2O)c(O[C@H]2CCN3C(=O)OC[C@@H]3C2)cc1C(=O)NCc1ccc(Cl)cc1 (single isomer, unassigned) [Compound 80] | 0.0989 |  |  |  |  | 3.21 |  |  |
| COc1nc(-c2cnn(C(C)(C)C)c2)c(O[C@H]2CCN3C(=O)OC[C@@H]3C2)cc1C(=O)NCc1ccc(Cl)cc1 [Compound 11] | 0.0203 | 0.456 | 0.653 | 1.27 |  |  |  |  |
| COc1nc(-c2cc3ccccc3o2)c(O[C@H]2CCN3C(=O)OC[C@@H]3C2)cc1C(=O)NCc1ccc(Cl)cc1 [Compound 20] | 0.0253 | 1.44 | 0.587 | 1.87 |  |  |  |  |
| COc1nc(-c2occc2C=O)c(O[C@H]2CCN3C(=O)OC[C@@H]3C2)cc1C(=O)NCc1ccc(Cl)cc1 [Compound 23] | 0.018 | 0.0874 | 0.14 | 0.117 |  |  |  |  |
| COc1nc(-c2cc(C(F)(F)F)nn2C)c(O[C@H]2CCN3C(=O)OC[C@@H]3C2)cc1C(=O)NCc1ccc(Cl)cc1 [Compound 48] | 0.193 |  | 2.01 |  |  |  |  |  |
| COc1nc(-c2cccc3cc[nH]c23)c(O[C@H]2CCN3C(=O)OC[C@@H]3C2)cc1C(=O)NCc1ccc(Cl)cc1 [Compound 49] | 0.131 |  | 2.74 |  |  |  |  |  |
| COc1nc(-c2ccc3cc[nH]c3c2)c(O[C@H]2CCN3C(=O)OC[C@@H]3C2)cc1C(=O)NCc1ccc(Cl)cc1 [Compound 50] | 0.0807 |  | 2.76 |  |  |  |  |  |
| COc1nc(-c2cc3cccc(OC)c3[nH]2)c(O[C@H]2CCN3C(=O)OC[C@@H]3C2)cc1C(=O)NCc1ccc(Cl)cc1 [Compound 54] | 0.0237 |  | 5.26 |  |  |  |  |  |
| COc1nc(N2CC3(C(C)(C)O)CC2C3)c(O[C@H]2CCN3C(=O)OC[C@@H]3C2)cc1C(=O)NCc1ccc(Cl)cc1 [Compound 69] | 0.0539 |  | 1.48 |  |  |  |  |  |

Now from value to compound, other results behind:

| IC50 ([1]; read-out: CMV (IC50)) [µM] | SMILES | EC50 (HSV-1 Strain F; Human alphaherpesvirus 1, 72 h) [µM] | EC50 (HCMV Strain AD169; [2]) [µM] | EC50 (VZV; Human alphaherpesvirus 3, 72 h) [µM] | IC50 ([1]; CMV (IC50)) [µM] | EC50 (HCMV Strain AD169; ~72 hrs) [µM] | EC50 (VZV; ~72 hrs) [µM] | EC50 (HSV-1 Strain F; ~72 hrs) [µM] |
| --- | --- | --- | --- | --- | --- | --- | --- | --- |
| 0.00927 | COc1nc(-c2cccs2)c(O[C@H]2CCN3C(=O)OC[C@@H]3C2)cc1C(=O)NCc1ccc(Cl)cc1 [Compound 12] | 0.187 | 0.313 | 0.235 |  |  |  |  |
| 0.0162 | COc1nc(-c2ccc(C)o2)c(O[C@H]2CCN3C(=O)OC[C@@H]3C2)cc1C(=O)NCc1ccc(Cl)cc1 [Compound 13] | 0.229 | 0.457 | 0.307 |  |  |  |  |
| 0.0192 | COc1nc(-c2ccc(C)s2)c(O[C@H]2CCN3C(=O)OC[C@@H]3C2)cc1C(=O)NCc1ccc(Cl)cc1 [Compound 14] | 0.824 | 1.02 | 2.57 |  |  |  |  |
| 0.0107 | COc1nc(-c2ccoc2)c(O[C@H]2CCN3C(=O)OC[C@@H]3C2)cc1C(=O)NCc1ccc(Cl)cc1 [Compound 17] | 0.186 | 0.317 | 0.244 |  |  |  |  |
| 0.0196 | COc1nc(-c2cc[nH]n2)c(O[C@H]2CCN3C(=O)OC[C@@H]3C2)cc1C(=O)NCc1ccc(Cl)cc1 [Compound 18] |  | 1.2 |  |  |  |  |  |
| 0.0209 | COc1nc(-c2ccsc2)c(O[C@H]2CCN3C(=O)OC[C@@H]3C2)cc1C(=O)NCc1ccc(Cl)cc1 [Compound 21] | 0.377 | 0.5 | 0.417 |  |  |  |  |
| 0.00677 | COCCn1cc(-c2nc(OC)c(C(=O)NCc3ccc(Cl)cc3)cc2O[C@H]2CCN3C(=O)OC[C@@H]3C2)cn1 [Compound 25] | 0.146 | 0.159 | 0.186 |  |  |  |  |
| 0.0795 | COc1ccc(-c2nc(OC)c(C(=O)NCc3ccc(Cl)cc3)cc2O[C@H]2CCN3C(=O)OC[C@@H]3C2)nc1 [Compound 35] |  | 1.94 |  |  |  |  |  |
| 0.133 | COc1nc(-c2ccnc3[nH]ccc23)c(O[C@H]2CCN3C(=O)OC[C@@H]3C2)cc1C(=O)NCc1ccc(Cl)cc1 [Compound 51] |  | 3.34 |  |  |  |  |  |
| 0.12 | COc1nc(-c2ccccn2)c(O[C@H]2CCN3C(=O)OC[C@@H]3C2)cc1C(=O)NCc1ccc(Cl)cc1 [Compound 52] |  | 3.48 |  |  |  |  |  |
| 0.164 | COc1nccc(-c2nc(OC)c(C(=O)NCc3ccc(Cl)cc3)cc2O[C@H]2CCN3C(=O)OC[C@@H]3C2)n1 [Compound 53] |  | 3.99 |  |  |  |  |  |
